Patent publication US10266560B2, “Bile acid analogs as FXR/TGR5 agonists and methods of use thereof” (Enanta Pharmaceuticals, Inc., priority 2014, dated 2019)
Read-outs that look alike come from different tables or passages of the source.

Molecular target: Human FXR (NR1H4) (Homo sapiens (Human), UniProt Q96RI1)
Test: Human FXR (NR1H4) Assay (Gal4 promoter driven luciferase reporter transactivation in CHO cells)
Type: cell-based
Excerpt: Assays Human FXR (NR1H4) Assay
Determination of a ligand mediated Gal4 promoter driven transactivation to quantify ligand binding mediated activation of FXR. FXR Reporter Assay kit purchased from Indigo Bioscience (Catalogue number: IB00601) to determine the potency and efficacy of compound developed by Enanta that can induce FXR activation. The principle application of this reporter assay system is to quantify functional activity of human FXR. The assay utilizes non-human mammalian cells, CHO (Chinese hamster ovary) cells engineered to express human NR1H4 protein (referred to as FXR). Reporter cells also incorporate the cDNA encoding beetle luciferase which catalyzes the substrates and yields photon emission. Luminescence intensity of the reaction is quantified using a plate-reading luminometer, Envision. Reporter Cells include the luciferase reporter gene functionally linked to an FXR responsive promoter. Thus, quantifying changes in luciferase expression in the treated reporter cells provides a sensitive surrogate measure of the changes in FXR activity. […] The assay is according to the manufacturer's instructions. In brief, the assay was performed in white, 96 well plates using final volume of 200 ul containing cells with different doses of compounds. Retrieve Reporter Cells from −80° C. storage. Perform a rapid thaw of the frozen cells by transferring a 10 ml volume of 37° C. cell recovery medium into the tube of frozen cells. Recap the tube of Reporter Cells and immediately place it in a 37° C. water bath for 5-10 minutes. Retrieve the tube of Reporter Cell Suspension from the water bath. Sanitize the outside surface of the tube with a 70% alcohol swab, and then transfer it into the cell culture hood. Dispense 100 μl of cell suspension into each well of the 96-well Assay Plate. Transfer the plate into 37° C. incubator, allowing the cells adherent to the bottom of the well. Dilute compounds in Dilution Plate (DP), and administrate to cells at Assay Plate (AP). DMSO content of the samples was kept at 0.2%. Cells were incubated for additional 22 hours before luciferase activities were measured. Thirty minutes before intending to quantify FXR activity, remove Detection Substrate and Detection Buffer from the refrigerator and place them in a low-light area so that they may equilibrate to room temperature. Remove the plate's lid and discard all media contents by ejecting it into an appropriate waste container. Gently tap the inverted plate onto a clean absorbent paper towel to remove residual droplets. Cells will remain tightly adhered to well bottoms. Add 100 μl of luciferase detection reagent to each well of the assay plate. Allow the assay plate to rest at room temperature for at least 5 minutes following the addition of LDR. Set the instrument (Envision) to perform a single 5 second “plate shake” prior to reading the first assay well. Read time may be 0.5 second (500 mSec) per well.

[1] = FXR agonistic potency range; CHO reporter cells expressing human NR1H4, 22 hours incubation; read-out: EC50
[2] = efficacy normalized to chenodeoxycholic acid (CDCA) set as 100%

Chain of Human FXR (NR1H4) (Q96RI1 whole entry, the tested form may be a part): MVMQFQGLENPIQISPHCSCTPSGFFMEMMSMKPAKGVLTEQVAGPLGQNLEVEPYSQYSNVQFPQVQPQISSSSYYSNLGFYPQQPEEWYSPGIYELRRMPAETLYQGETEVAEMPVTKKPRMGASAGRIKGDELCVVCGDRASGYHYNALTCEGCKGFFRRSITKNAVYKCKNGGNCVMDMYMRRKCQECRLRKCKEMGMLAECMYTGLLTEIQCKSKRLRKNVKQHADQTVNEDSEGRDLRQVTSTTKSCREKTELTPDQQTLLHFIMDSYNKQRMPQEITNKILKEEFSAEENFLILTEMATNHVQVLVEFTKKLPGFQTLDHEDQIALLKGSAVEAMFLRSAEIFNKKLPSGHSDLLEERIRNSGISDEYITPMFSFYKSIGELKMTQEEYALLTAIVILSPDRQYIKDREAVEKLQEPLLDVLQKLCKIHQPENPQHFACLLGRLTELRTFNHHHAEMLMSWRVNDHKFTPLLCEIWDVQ

CC[C@H]1[C@@H](O)[C@@H]2[C@H](CC[C@]3(C)[C@@H]([C@H](C)CCC(=O)NS(C)(=O)=O)CC[C@@H]23)[C@@]2(C)CC[C@@H](O)C[C@@H]12 [Example 1]
Emax (CHO; read-out: Efficacy (%)): 254% | EC50 (read-out: EC50): 100 to 1000 nM

CCC1C(O)C2C3CCC(C(C)CCC(=O)NS(=O)(=O)CC)C3(C)CCC2C2(C)CCC(O)CC12 (stereo not drawn) [Example 2]
EC50 [1]: 100 to 1000 nM | Efficacy (%) [2]: 258%

CCC1C(O)C2C3CCC(C(C)CCC(=O)NS(=O)(=O)C(C)C)C3(C)CCC2C2(C)CCC(O)CC12 (stereo not drawn) [Example 3]
EC50 [1]: 100 to 1000 nM | Efficacy (%) [2]: 289%

CCCCS(=O)(=O)NC(=O)CCC(C)C1CCC2C3C(O)C(CC)C4CC(O)CCC4(C)C3CCC12C (stereo not drawn) [Example 4]
EC50 [1]: 100 to 1000 nM | Efficacy (%) [2]: 376%

CCC1C(O)C2C3CCC(C(C)CCC(=O)NS(=O)(=O)C(C)(C)C)C3(C)CCC2C2(C)CCC(O)CC12 (stereo not drawn) [Example 5]
EC50 [1]: < 100 nM | Efficacy (%) [2]: 218%

CCCS(=O)(=O)NC(=O)CCC(C)C1CCC2C3C(O)C(CC)C4CC(O)CCC4(C)C3CCC12C (stereo not drawn) [Example 6]
EC50 [1]: 100 to 1000 nM | Efficacy (%) [2]: 295%

CCC1C(O)C2C3CCC(C(C)CCC(=O)NS(=O)(=O)Cc4ccccc4)C3(C)CCC2C2(C)CCC(O)CC12 (stereo not drawn) [Example 7]
EC50 [1]: 1000 to 10000 nM | Efficacy (%) [2]: 178%

C=CCS(=O)(=O)NC(=O)CCC(C)C1CCC2C3C(O)C(CC)C4CC(O)CCC4(C)C3CCC12C (stereo not drawn) [Example 9]
EC50 [1]: 100 to 1000 nM | Efficacy (%) [2]: 248%

CCC1C(O)C2C3CCC(C(C)CCC(=O)NS(=O)(=O)C(F)(F)F)C3(C)CCC2C2(C)CCC(O)CC12 (stereo not drawn) [Example 10]
EC50 [1]: 1000 to 10000 nM | Efficacy (%) [2]: 244%

CCC1C(O)C2C3CCC(C(C)CCC(=O)NS(=O)(=O)C4CC4)C3(C)CCC2C2(C)CCC(O)CC12 (stereo not drawn) [Example 11]
EC50 [1]: 100 to 1000 nM | Efficacy (%) [2]: 315%

CCC1C(O)C2C3CCC(C(C)CCC(=O)NS(=O)(=O)C4(C)CC4)C3(C)CCC2C2(C)CCC(O)CC12 (stereo not drawn) [Example 12]
EC50 [1]: 100 to 1000 nM | Efficacy (%) [2]: 331%

CCC1C(O)C2C3CCC(C(C)CCC(=O)NS(=O)(=O)N4CCOCC4)C3(C)CCC2C2(C)CCC(O)CC12 (stereo not drawn) [Example 16]
EC50 [1]: 1000 to 10000 nM | Efficacy (%) [2]: 219%

CCC1C(O)C2C3CCC(C(C)CCC(=O)NS(N)(=O)=O)C3(C)CCC2C2(C)CCC(O)CC12 (stereo not drawn) [Example 17]
EC50 [1]: 1000 to 10000 nM | Efficacy (%) [2]: 349%

CC[C@H]1[C@@H](O)[C@@H]2[C@H](CC[C@]3(C)[C@@H]([C@H](C)CCC(=O)NS(=O)(=O)c4ccccc4)CC[C@@H]23)[C@@]2(C)CC[C@@H](O)C[C@@H]12 [Example 18]
EC50 [1]: < 100 nM | Efficacy (%) [2]: 329%

CCC1C(O)C2C3CCC(C(C)CCC(=O)NS(=O)(=O)c4ccccc4N)C3(C)CCC2C2(C)CCC(O)CC12 (stereo not drawn) [Example 19]
EC50 [1]: 100 to 1000 nM | Efficacy (%) [2]: 176%

CCC1C(O)C2C3CCC(C(C)CCC(=O)NS(=O)(=O)c4ccccc4C)C3(C)CCC2C2(C)CCC(O)CC12 (stereo not drawn) [Example 20]
EC50 [1]: 100 to 1000 nM | Efficacy (%) [2]: 348%

CCC1C(O)C2C3CCC(C(C)CCC(=O)NS(=O)(=O)c4ccccc4F)C3(C)CCC2C2(C)CCC(O)CC12 (stereo not drawn) [Example 22]
EC50 [1]: 100 to 1000 nM | Efficacy (%) [2]: 259%

CCC1C(O)C2C3CCC(C(C)CCC(=O)NS(=O)(=O)c4ccccc4[N+](=O)[O-])C3(C)CCC2C2(C)CCC(O)CC12 (stereo not drawn) [Example 23]
EC50 [1]: 100 to 1000 nM | Efficacy (%) [2]: 280%

CCC1C(O)C2C3CCC(C(C)CCC(=O)NS(=O)(=O)c4ccc(C)cc4)C3(C)CCC2C2(C)CCC(O)CC12 (stereo not drawn) [Example 24]
EC50 [1]: < 100 nM | Efficacy (%) [2]: 271%

CCC1C(O)C2C3CCC(C(C)CCC(=O)NS(=O)(=O)F)C3(C)CCC2C2(C)CCC(O)CC12 (stereo not drawn) [Example 25]
EC50 [1]: 1000 to 10000 nM | Efficacy (%) [2]: 347%

CC[C@@H]1C2C[C@H](O)CCC2(C)[C@H]2CCC3(C)C([C@H](C)CCC(=O)NS(=O)(=O)c4ccccc4Cl)CC[C@H]3[C@@H]2[C@@H]1O (stereo partly drawn) [Example 451]
Emax (CHO; read-out: Efficacy (%)): 274% | EC50 (read-out: EC50): 100 to 1000 nM

CC[C@@H]1C2C[C@H](O)CCC2(C)[C@H]2CCC3(C)C([C@H](C)CCC(=O)NS(=O)(=O)c4cccc([N+](=O)[O-])c4)CC[C@H]3[C@@H]2[C@@H]1O (stereo partly drawn) [Example 452]
EC50: 1000 to 10000 nM | Emax (CHO, read-out: Efficacy (%)): 292%

CC[C@@H]1C2C[C@H](O)CCC2(C)[C@H]2CCC3(C)C([C@H](C)CCC(=O)NS(=O)(=O)c4ccc(F)cc4)CC[C@H]3[C@@H]2[C@@H]1O (stereo partly drawn) [Example 453]
Emax (CHO; read-out: Efficacy (%)): 240% | EC50 (read-out: EC50): 100 to 1000 nM

CC[C@@H]1C2C[C@H](O)CCC2(C)[C@H]2CCC3(C)C([C@H](C)CCC(=O)NS(=O)(=O)c4ccc([N+](=O)[O-])cc4)CC[C@H]3[C@@H]2[C@@H]1O (stereo partly drawn) [Example 454]
Emax (CHO; read-out: Efficacy (%)): 353% | EC50 (read-out: EC50): 100 to 1000 nM

CC[C@@H]1C2C[C@H](O)CCC2(C)[C@H]2CCC3(C)C([C@H](C)CCC(=O)NS(=O)(=O)c4ccc(OC)cc4)CC[C@H]3[C@@H]2[C@@H]1O (stereo partly drawn) [Example 455]
Emax (CHO, read-out: Efficacy (%)): 417% | EC50 [1]: < 100 nM

CC[C@@H]1C2C[C@H](O)CCC2(C)[C@H]2CCC3(C)C([C@H](C)CCC(=O)NS(=O)(=O)c4cccc(F)c4)CC[C@H]3[C@@H]2[C@@H]1O (stereo partly drawn) [Example 456]
Emax (CHO, read-out: Efficacy (%)): 415% | EC50 [1]: < 100 nM

CC[C@@H]1C2C[C@H](O)CCC2(C)[C@H]2CCC3(C)C([C@H](C)CCC(=O)NS(=O)(=O)c4cccc(C)c4)CC[C@H]3[C@@H]2[C@@H]1O (stereo partly drawn) [Example 457]
Emax (CHO, read-out: Efficacy (%)): 382% | EC50 [1]: < 100 nM

CC[C@@H]1C2C[C@H](O)CCC2(C)[C@H]2CCC3(C)C([C@H](C)CCC(=O)NS(=O)(=O)c4ccccc4C(F)(F)F)CC[C@H]3[C@@H]2[C@@H]1O (stereo partly drawn) [Example 459]
Emax (CHO; read-out: Efficacy (%)): 310% | EC50 (read-out: EC50): 100 to 1000 nM

CC[C@@H]1C2C[C@H](O)CCC2(C)[C@H]2CCC3(C)C([C@H](C)CCC(=O)NS(=O)(=O)c4cccc(C(F)(F)F)c4)CC[C@H]3[C@@H]2[C@@H]1O (stereo partly drawn) [Example 460]
Emax (CHO, read-out: Efficacy (%)): 291% | EC50 [1]: < 100 nM

CC[C@@H]1C2C[C@H](O)CCC2(C)[C@H]2CCC3(C)C([C@H](C)CCC(=O)NS(=O)(=O)c4ccc(C#N)cc4)CC[C@H]3[C@@H]2[C@@H]1O (stereo partly drawn) [Example 461]
Emax (CHO; read-out: Efficacy (%)): 283% | EC50 (read-out: EC50): 100 to 1000 nM

CC[C@@H]1C2C[C@H](O)CCC2(C)[C@H]2CCC3(C)C([C@H](C)CCC(=O)NS(=O)(=O)c4ccccn4)CC[C@H]3[C@@H]2[C@@H]1O (stereo partly drawn) [Example 462]
Emax (CHO; read-out: Efficacy (%)): 297% | EC50 (read-out: EC50): 100 to 1000 nM

CC[C@@H]1C2C[C@H](O)CCC2(C)[C@H]2CCC3(C)C([C@H](C)CCC(=O)NS(=O)(=O)c4ccncc4)CC[C@H]3[C@@H]2[C@@H]1O (stereo partly drawn) [Example 463]
Emax (CHO; read-out: Efficacy (%)): 251% | EC50 (read-out: EC50): 1000 to 10000 nM

CC[C@@H]1C2C[C@H](O)CCC2(C)[C@H]2CCC3(C)C([C@H](C)CCC(=O)NS(=O)(=O)c4cc(F)cc(F)c4)CC[C@H]3[C@@H]2[C@@H]1O (stereo partly drawn) [Example 464]
Emax (CHO; read-out: Efficacy (%)): 293% | EC50 (read-out: EC50): 100 to 1000 nM

CC[C@@H]1C2C[C@H](O)CCC2(C)[C@H]2CCC3(C)C([C@H](C)CCC(=O)NS(=O)(=O)c4ccc(C)c(F)c4)CC[C@H]3[C@@H]2[C@@H]1O (stereo partly drawn) [Example 465]
Emax (CHO, read-out: Efficacy (%)): 303% | EC50 [1]: < 100 nM

CC[C@@H]1C2C[C@H](O)CCC2(C)[C@H]2CCC3(C)C([C@H](C)CCC(=O)NS(=O)(=O)c4cccnc4)CC[C@H]3[C@@H]2[C@@H]1O (stereo partly drawn) [Example 466]
Emax (CHO; read-out: Efficacy (%)): 258% | EC50 (read-out: EC50): 1000 to 10000 nM

CC[C@@H]1C2C[C@H](O)CCC2(C)[C@H]2CCC3(C)C([C@H](C)CCC(=O)NS(=O)(=O)c4cccs4)CC[C@H]3[C@@H]2[C@@H]1O (stereo partly drawn) [Example 467]
Emax (CHO; read-out: Efficacy (%)): 315% | EC50 (read-out: EC50): 100 to 1000 nM
